{
  "source": "paper PMC7935272",
  "about": "(PLoS Pathogens, 2021)",
  "key": {"MeV L1708": {"target": "MeV L1708 (Measles virus, UniProt Q9WMB3)", "design": "method as in PMID 32661315", "details": "BLI, MeV L1708 WT; reported previously ref 36; cited from earlier work"}, "MeV L T1010N [1]": {"target": "T1, MeV L T1010N (Measles virus, UniProt P12576, T1010N)", "T1 construct": "expressed in transfected cells; host or cells: BSR-T7/5", "test": "MeV minigenome dose-response assay, L T1010N", "type": "cell-based", "details": "EC50, L T1010N vs WT"}, "MeV L I1009F [2]": {"target": "T2, MeV L I1009F (Measles virus, UniProt P12576, I1009F)", "T2 construct": "expressed in transfected cells; host or cells: BSR-T7/5", "design": "method as in PMID 32661315", "details": "minigenome, reported previously ref 36; cited from earlier work"}, "MeV L Y1106S [3]": {"target": "T3, MeV L Y1106S (Measles virus, UniProt P12576, Y1106S)", "T3 construct": "expressed in transfected cells; host or cells: BSR-T7/5", "test": "MeV minigenome dose-response assay, L Y1106S", "type": "cell-based", "details": "EC50, L Y1106S vs WT"}, "MeV L V1239A": {"target": "T4, MeV L V1239A (Measles virus, UniProt P12576, V1239A)", "T4 construct": "expressed in transfected cells; host or cells: BSR-T7/5", "test": "MeV minigenome dose-response assay, L V1239A", "type": "cell-based", "details": "for minigenome activity, individual repeat: Figure 1E"}, "MeV L L1170F": {"target": "T5, MeV L L1170F (Measles virus, UniProt P12576, L1170F)", "T5 construct": "expressed in transfected cells; host or cells: BSR-T7/5", "test": "MeV minigenome dose-response assay, L L1170F", "type": "cell-based", "details": "for minigenome activity, individual repeat: Figure 1E"}, "MeV L S768A": {"target": "T6, MeV L S768A (Measles virus, UniProt P12576, S768A)", "T6 construct": "expressed in transfected cells; host or cells: BSR-T7/5", "test": "MeV minigenome dose-response assay, L S768A", "type": "cell-based"}, "MeV L": {"target": "T7, MeV L (Measles virus, UniProt P12576)", "T7 construct": "expressed in transfected cells; host or cells: BSR-T7/5", "test": "MeV minigenome dose-response assay, L WT", "type": "cell-based", "details": "for minigenome activity, individual repeat: WT, Figure 1E"}, "MeV L E858D [4]": {"target": "T8, MeV L E858D (Measles virus, UniProt P12576, E858D)", "T8 construct": "expressed in transfected cells; host or cells: BSR-T7/5", "design": "method as in PMID 32661315", "details": "minigenome, reported previously ref 36; cited from earlier work"}, "MeV L1708 Y1106S": {"target": "MeV L1708 Y1106S", "design": "method as in PMID 32661315", "details": "BLI, reported previously ref 36; cited from earlier work"}, "MeV L E858D [5]": {"target": "T8, MeV L E858D", "test": "MeV minigenome dose-response assay, L E858D", "type": "cell-based", "details": "EC50, L E858D vs WT"}, "MeV L T776A": {"target": "T9, MeV L T776A (Measles virus, UniProt P12576, T776A)", "T9 construct": "expressed in transfected cells; host or cells: BSR-T7/5", "test": "MeV minigenome dose-response assay, L T776A", "type": "cell-based"}, "MeV L Y1106S [6]": {"target": "T3, MeV L Y1106S", "design": "method as in PMID 32661315", "details": "minigenome, reported previously ref 36; cited from earlier work"}, "MeV L H589Y": {"target": "T10, MeV L H589Y (Measles virus, UniProt P12576, H589Y)", "T10 construct": "expressed in transfected cells; host or cells: BSR-T7/5", "test": "MeV minigenome dose-response assay, L H589Y", "type": "cell-based", "details": "for minigenome activity, individual repeat: H589Y, Figure 1E"}, "MeV L I1009F [7]": {"target": "T2, MeV L I1009F", "test": "MeV minigenome dose-response assay, L I1009F", "type": "cell-based", "details": "EC50, L I1009F vs WT"}, "MeV L1708 E858D": {"target": "MeV L1708 E858D", "design": "method as in PMID 32661315", "details": "BLI, reported previously ref 36; cited from earlier work"}, "MeV L1708 I1009F": {"target": "MeV L1708 I1009F", "design": "method as in PMID 32661315", "details": "BLI, reported previously ref 36; cited from earlier work"}, "MeV L T1010N [8]": {"target": "T1, MeV L T1010N", "design": "method as in PMID 32661315", "details": "minigenome, reported previously ref 36; cited from earlier work"}},
  "note": "Where “and” joins values, the source holds several entries; their conditions need not be identical. Identical values can stand only once.",
  "data": [
    {"compound": "NC(=O)c1c(F)cccc1-c1cccc2cnccc12", "note": "[GHP-88309]", "values": [
      {"measurement": "Kd", "setting": "MeV L1708", "result": 6.2, "unit": "µM"},
      {"measurement": "fold change to WT", "setting": "MeV L T1010N [1]", "result": 3.8},
      {"measurement": "EC50", "setting": "MeV L I1009F [2]", "result": 18.6, "unit": "µM"},
      {"measurement": "fold change to WT", "setting": "MeV L Y1106S [3]", "result": ">50"},
      {"measurement": "fold change to WT", "setting": "MeV L V1239A; EC50, L V1239A vs WT", "result": 0.7},
      {"measurement": "minigenome activity, individual repeat", "setting": "MeV L V1239A; GHP-88309 0.0457247 µM, L V1239A", "result": "96 and 97 and 118"},
      {"measurement": "minigenome activity, individual repeat", "setting": "MeV L V1239A; GHP-88309 0.137174 µM, L V1239A", "result": "120 and 103"},
      {"measurement": "minigenome activity, individual repeat", "setting": "MeV L V1239A; GHP-88309 0.411523 µM, L V1239A", "result": "66 and 59 (2×)"},
      {"measurement": "minigenome activity, individual repeat", "setting": "MeV L V1239A; GHP-88309 1.23457 µM, L V1239A", "result": "80 and 79 (2×)"},
      {"measurement": "minigenome activity, individual repeat", "setting": "MeV L V1239A; GHP-88309 3.7037 µM, L V1239A", "result": "33 (2×) and 30"},
      {"measurement": "minigenome activity, individual repeat", "setting": "MeV L V1239A; GHP-88309 11.1111 µM, L V1239A", "result": "2 (2×) and 3"},
      {"measurement": "minigenome activity, individual repeat", "setting": "MeV L V1239A; GHP-88309 33.3333 µM, L V1239A", "result": "-2 and 1 (2×)"},
      {"measurement": "EC50", "setting": "MeV L V1239A; minigenome, L V1239A", "result": 2.03, "unit": "µM"},
      {"measurement": "fold change to WT", "setting": "MeV L L1170F; EC50, L L1170F vs WT", "result": 0.7},
      {"measurement": "minigenome activity, individual repeat", "setting": "MeV L L1170F; GHP-88309 0.0457247 µM, L L1170F", "result": "120 and 119 and 105"},
      {"measurement": "minigenome activity, individual repeat", "setting": "MeV L L1170F; GHP-88309 0.137174 µM, L L1170F", "result": "97 and 98 and 103"},
      {"measurement": "minigenome activity, individual repeat", "setting": "MeV L L1170F; GHP-88309 0.411523 µM, L L1170F", "result": "56 and 67 and 65"},
      {"measurement": "minigenome activity, individual repeat", "setting": "MeV L L1170F; GHP-88309 1.23457 µM, L L1170F", "result": "92 (2×) and 86"},
      {"measurement": "minigenome activity, individual repeat", "setting": "MeV L L1170F; GHP-88309 3.7037 µM, L L1170F", "result": "27 and 26 and 21"},
      {"measurement": "minigenome activity, individual repeat", "setting": "MeV L L1170F; GHP-88309 11.1111 µM, L L1170F", "result": "0 (2×) and 1"},
      {"measurement": "minigenome activity, individual repeat", "setting": "MeV L L1170F; GHP-88309 33.3333 µM, L L1170F", "result": "-1 and 0 (2×)"},
      {"measurement": "EC50", "setting": "MeV L L1170F; minigenome, L L1170F", "result": 2.41, "unit": "µM"},
      {"measurement": "fold change to WT", "setting": "MeV L S768A; EC50, L S768A vs WT", "result": 0.6},
      {"measurement": "EC50", "setting": "MeV L S768A; minigenome, L S768A", "result": 1.26, "unit": "µM"},
      {"measurement": "minigenome activity, individual repeat", "setting": "MeV L; GHP-88309 0.411523 µM", "result": "87.746 and 92.4701"},
      {"measurement": "minigenome activity, individual repeat", "setting": "MeV L; GHP-88309 1.23457 µM", "result": "77.6244 and 62.4876 and 68.5227 and 90 and 86 and 112"},
      {"measurement": "minigenome activity, individual repeat", "setting": "MeV L; GHP-88309 3.7037 µM", "result": "31.991 and 34.7895 and 30.6512 and 25 and 32 and 29"},
      {"measurement": "minigenome activity, individual repeat", "setting": "MeV L; GHP-88309 11.1111 µM", "result": "2.411 and 2.106 and 2.445 and 2 and 4 and 3"},
      {"measurement": "minigenome activity, individual repeat", "setting": "MeV L; GHP-88309 33.3333 µM", "result": "1.248 and 0.5543 and 0.7091 and -4 and 2 and 3"},
      {"measurement": "minigenome activity, individual repeat", "setting": "MeV L; GHP-88309 100 µM", "result": "0.7732 and 1.544 and 0.3453"},
      {"measurement": "EC50", "setting": "MeV L; minigenome, L WT", "result": 2.4, "unit": "µM"},
      {"measurement": "EC50", "setting": "MeV L E858D [4]", "result": 15, "unit": "µM"},
      {"measurement": "Kd", "setting": "MeV L1708 Y1106S", "result": "> 300", "unit": "µM"},
      {"measurement": "fold change to WT", "setting": "MeV L E858D [5]", "result": 6.7},
      {"measurement": "fold change to WT", "setting": "MeV L T776A; EC50, L T776A vs WT", "result": 1.1},
      {"measurement": "EC50", "setting": "MeV L T776A; minigenome, L T776A", "result": 2.39, "unit": "µM"},
      {"measurement": "EC50", "setting": "MeV L Y1106S [6]", "result": "> 100", "unit": "µM"},
      {"measurement": "fold change to WT", "setting": "MeV L H589Y; EC50, L H589Y vs WT", "result": 1.8},
      {"measurement": "minigenome activity, individual repeat", "setting": "MeV L H589Y; GHP-88309 0.0457247 µM", "result": "99.134 and 165.3 and 161.609"},
      {"measurement": "minigenome activity, individual repeat", "setting": "MeV L H589Y; GHP-88309 0.137174 µM", "result": "129.072 and 126.646 and 70.0978"},
      {"measurement": "minigenome activity, individual repeat", "setting": "MeV L H589Y; GHP-88309 0.411523 µM", "result": "102.614 and 60.5017 and 60.0219"},
      {"measurement": "minigenome activity, individual repeat", "setting": "MeV L H589Y; GHP-88309 1.23457 µM", "result": "96.1391 and 78.5761 and 76.4935"},
      {"measurement": "minigenome activity, individual repeat", "setting": "MeV L H589Y; GHP-88309 3.7037 µM", "result": "76.5304 and 44.0459 and 30.8961"},
      {"measurement": "minigenome activity, individual repeat", "setting": "MeV L H589Y; GHP-88309 11.1111 µM", "result": "19.3913 and 21.0627 and 38.9421"},
      {"measurement": "minigenome activity, individual repeat", "setting": "MeV L H589Y; GHP-88309 33.3333 µM", "result": "3.067 and 1.981 and 4.217"},
      {"measurement": "minigenome activity, individual repeat", "setting": "MeV L H589Y; GHP-88309 100 µM", "result": "-0.2175 and 2.229 and 0.06723"},
      {"measurement": "EC50", "setting": "MeV L H589Y; minigenome, L H589Y", "result": 3.91, "unit": "µM"},
      {"measurement": "fold change to WT", "setting": "MeV L I1009F [7]", "result": 8.3},
      {"measurement": "Kd", "setting": "MeV L1708 E858D", "result": 8.6, "unit": "µM"},
      {"measurement": "Kd", "setting": "MeV L1708 I1009F", "result": 68.3, "unit": "µM"},
      {"measurement": "EC50", "setting": "MeV L T1010N [8]", "result": 8.36, "unit": "µM"}
    ]}
  ]
}
